In ChEMBL document CHEMBL1135875, “Hydrophobic modifications at 1-phosphate of inositol 1,4,5-trisphosphate analogues enhance receptor binding” (Bioorg Med Chem Lett, 2002):

Tests used:
[1] = target: T1, Inositol 1,4,5-trisphosphate-gated calcium channel ITPR1 (Homo sapiens, UniProt Q14643); test: Dissociation constant using IP3-binding domain (IBD) of human Type 1 inositol 1,4,5-trisphosphate receptor
[2] = target: T1, Inositol 1,4,5-trisphosphate-gated calcium channel ITPR1; test: Affinity towards IP3-binding domain (IBD) of human Type 1 inositol 1,4,5-trisphosphate receptor was determined relative to compound 2

T1 sequence (Q14643 whole entry, the tested form may be a part): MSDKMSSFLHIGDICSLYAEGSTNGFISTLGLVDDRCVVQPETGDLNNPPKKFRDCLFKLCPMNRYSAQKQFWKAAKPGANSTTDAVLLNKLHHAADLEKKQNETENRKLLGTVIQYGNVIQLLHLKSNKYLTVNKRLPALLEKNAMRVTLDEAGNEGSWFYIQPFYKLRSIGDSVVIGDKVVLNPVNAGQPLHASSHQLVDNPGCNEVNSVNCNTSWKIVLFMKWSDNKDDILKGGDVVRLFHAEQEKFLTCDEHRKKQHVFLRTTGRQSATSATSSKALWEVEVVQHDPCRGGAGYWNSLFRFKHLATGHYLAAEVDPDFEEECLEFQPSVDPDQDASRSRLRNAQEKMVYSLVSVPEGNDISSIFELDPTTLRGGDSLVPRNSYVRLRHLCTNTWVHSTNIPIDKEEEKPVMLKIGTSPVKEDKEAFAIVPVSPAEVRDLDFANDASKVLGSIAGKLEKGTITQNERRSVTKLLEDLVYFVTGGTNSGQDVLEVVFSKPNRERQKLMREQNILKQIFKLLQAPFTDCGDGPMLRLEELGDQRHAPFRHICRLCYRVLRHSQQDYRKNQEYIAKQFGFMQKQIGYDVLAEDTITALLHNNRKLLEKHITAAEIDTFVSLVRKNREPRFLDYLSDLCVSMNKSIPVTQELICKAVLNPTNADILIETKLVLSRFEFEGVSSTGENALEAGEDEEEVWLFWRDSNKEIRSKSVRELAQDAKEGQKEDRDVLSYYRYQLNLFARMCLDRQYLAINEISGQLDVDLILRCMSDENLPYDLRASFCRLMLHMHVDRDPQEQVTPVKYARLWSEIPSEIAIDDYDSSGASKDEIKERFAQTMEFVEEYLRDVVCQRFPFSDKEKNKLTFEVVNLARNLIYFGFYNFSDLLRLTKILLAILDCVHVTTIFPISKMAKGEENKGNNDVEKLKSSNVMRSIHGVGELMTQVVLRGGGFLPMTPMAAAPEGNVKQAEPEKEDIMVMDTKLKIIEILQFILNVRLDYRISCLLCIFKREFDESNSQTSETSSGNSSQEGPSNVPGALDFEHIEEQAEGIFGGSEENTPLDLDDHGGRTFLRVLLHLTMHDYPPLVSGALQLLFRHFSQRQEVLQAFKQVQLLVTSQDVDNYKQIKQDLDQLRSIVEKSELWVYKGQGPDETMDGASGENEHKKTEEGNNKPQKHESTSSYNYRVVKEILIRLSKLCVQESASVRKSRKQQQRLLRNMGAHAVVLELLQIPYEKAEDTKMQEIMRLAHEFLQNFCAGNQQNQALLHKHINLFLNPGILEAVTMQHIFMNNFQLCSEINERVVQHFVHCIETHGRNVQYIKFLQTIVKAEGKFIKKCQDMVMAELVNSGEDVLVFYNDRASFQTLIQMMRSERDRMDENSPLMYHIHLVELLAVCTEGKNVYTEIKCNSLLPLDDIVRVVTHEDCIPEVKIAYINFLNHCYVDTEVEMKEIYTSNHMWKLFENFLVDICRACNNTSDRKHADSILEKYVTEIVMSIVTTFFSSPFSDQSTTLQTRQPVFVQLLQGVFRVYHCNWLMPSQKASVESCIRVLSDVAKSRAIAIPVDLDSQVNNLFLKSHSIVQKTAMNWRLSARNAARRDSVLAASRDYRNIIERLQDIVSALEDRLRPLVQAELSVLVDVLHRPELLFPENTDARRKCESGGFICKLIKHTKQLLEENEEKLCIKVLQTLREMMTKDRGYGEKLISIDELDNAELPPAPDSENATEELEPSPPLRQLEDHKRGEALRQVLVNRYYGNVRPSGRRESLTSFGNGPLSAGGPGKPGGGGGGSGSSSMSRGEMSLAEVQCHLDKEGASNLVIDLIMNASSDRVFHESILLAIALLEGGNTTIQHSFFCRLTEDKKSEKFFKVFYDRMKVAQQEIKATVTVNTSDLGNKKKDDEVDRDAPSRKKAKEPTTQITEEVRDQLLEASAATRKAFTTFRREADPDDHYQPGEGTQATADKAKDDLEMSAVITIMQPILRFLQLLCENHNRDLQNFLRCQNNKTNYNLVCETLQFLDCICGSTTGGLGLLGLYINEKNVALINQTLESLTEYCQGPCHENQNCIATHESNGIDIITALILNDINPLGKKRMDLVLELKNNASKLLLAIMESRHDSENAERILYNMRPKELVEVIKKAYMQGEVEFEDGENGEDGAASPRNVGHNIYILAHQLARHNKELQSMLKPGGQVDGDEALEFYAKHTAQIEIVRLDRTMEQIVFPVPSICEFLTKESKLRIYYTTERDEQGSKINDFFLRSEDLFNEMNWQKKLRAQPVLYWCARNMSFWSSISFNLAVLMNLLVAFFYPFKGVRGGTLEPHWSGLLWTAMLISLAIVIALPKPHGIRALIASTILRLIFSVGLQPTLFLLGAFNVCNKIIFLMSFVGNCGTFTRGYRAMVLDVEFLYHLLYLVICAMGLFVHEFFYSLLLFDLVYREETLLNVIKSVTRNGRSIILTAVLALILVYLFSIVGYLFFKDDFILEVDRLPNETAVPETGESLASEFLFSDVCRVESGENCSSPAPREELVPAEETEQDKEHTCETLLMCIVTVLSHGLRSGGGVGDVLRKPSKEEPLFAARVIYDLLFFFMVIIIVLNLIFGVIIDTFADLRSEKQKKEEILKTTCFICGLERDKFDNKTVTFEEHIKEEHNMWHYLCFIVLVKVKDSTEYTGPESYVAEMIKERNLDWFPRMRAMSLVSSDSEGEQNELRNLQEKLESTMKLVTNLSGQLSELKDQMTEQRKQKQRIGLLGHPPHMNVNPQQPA

Row | Kd [1] [nM] | Relative affinity [2] | Compound
1 | 620 | 2.4 | CN(C)c1ccc2c(-c3ccc(C(=O)NCCCOP(=O)(O)O[C@@H]4[C@H](O)[C@H](O)[C@@H](OP(=O)(O)O)[C@H](OP(=O)(O)O)[C@H]4O)cc3C(=O)[O-])c3ccc(=[N+](C)C)cc-3oc2c1
2 | 1500 | 1 | NCCCOP(=O)(O)O[C@@H]1[C@H](O)[C@H](O)[C@@H](OP(=O)(O)O)[C@H](OP(=O)(O)O)[C@H]1O
3 | – | 950 | CN(C)c1ccc(C(=C2C=CC(=[N+](C)C)C=C2)c2ccc(C(=O)NCCCOP(=O)(O)O[C@@H]3[C@H](O)[C@H](O)[C@@H](OP(=O)(O)O)[C@H](OP(=O)(O)O)[C@H]3O)cc2)cc1
